Measurements reported in publication PMC10940605, “Design, synthesis and in vitro anticancer activity of some new lomefloxacin derivatives” (Scientific Reports, 2024).

What was measured:
[1] = tested on: 60 human cancer cell lines; experiment: NCI-60 SRB screen, whole panel; assay type: cell-based; conditions: Homo sapiens, 48 h; One Dose Mean Graph, Conc 1.00E-5 Molar; read-out: Mean Growth Percent
LOX IMVI = experiment: NCI-60 SRB screen; assay type: cell-based; conditions: Homo sapiens, 10^–5 Molar, read-out: Percent growth inhibition
Description: (§1) All newly synthesized compounds were selected and screened for anticancer activity against 60 human cancer cell lines representing 9 types of tumors including leukemia, melanoma, lung, colon, CNS, ovarian, renal, prostate, and breast cancers at the National Cancer Institute (NCI), Bethesda, USA. Screening was performed utilizing a single dose (10^−5 M concentration) and cells were incubated for 48 h. The end point was determined using sulforhodamine B (SRB) dye.
(§2) In this study, all the 16 newly synthesized compounds were submitted to the National Cancer Institute (USA) for anticancer evaluation and were selected and evaluated using 60 different human tumor cell lines representing lung, colon, CNS, ovarian, renal, prostate, breast cancers as well as leukemia and melanoma. A single dose (10^–5 Molar) was used for the initial screening for evaluation of anticancer activity. The 60 human cancer cell lines were provided by the national cancer institute biomedical research campus in Frederick, Maryland.
(§3) 60 different human cancer cell lines were utilized to screen the newly synthesized compounds for anticancer activity according to the previously reported standard procedure[24]–[26] as follows: • 96 well microtiter plates were used to inoculate the cells at […] ranging from 4000–5000 cells/well depending on the replication time of individual cell lines. Roswell Park Memorial Institute culture medium (RPMI 1640 medium) containing 2 mM L-glutamine and fetal bovine serum was used to grow the cells at 37 °C, 5% CO2, 95% air and 100% relative humidity for 24 h. • Fixation of cells in two plates of each cell line in situ was done using trichloroacetic acid (TCA). This represented the measurement of cell population at the time of drug addition (Tz). • Dimethyl sulfoxide (DMSO) was used to dissolve the synthesized compounds at 400-fold the desired final maximum concentration and frozen prior to use. This frozen concentrate was melted and diluted to twice the final concentration with complete medium containing 50 µg/mL gentamycin at time of drug addition. • The final compound concentration was obtained by adding 100 µL of the synthesized compounds to the appropriate microtiter wells already containing 100 µL followed by incubation of the plates at 37 °C, 5% CO2, 95% air and 100% relative humidity for 48 h. • Fixation of the cells was achieved by gentle addition of 50 µL of cold 50% (w/v) TCA followed by incubation for 60 min at 4 °C. The supernatant was then discarded and the plates are washed 5 times with tap water and air dried. • Sulphorhodamine B (SRB) solution (100 µL) at 0.4% (w/v) in 1% acetic acid was added to each plate followed by incubation for 10 min at room temperature. The unbound dye was then removed by washing five times with 1% acetic acid and plates were air dried. • Dissolution of the bound stain was done using […] trizma base and the absorbance was read at […] wavelength using an automated plate reader. • The percentage growth inhibition was calculated as follows: Ti-Tz/C-Tz×100forconcentrationswhichTi≥Tz Ti-Tz/Tz×100forconcentrationswhichTi<Tz • Time zero (Tz) • Control growth (C) • Test growth in the presence of drug (Ti)

MCF7 = experiment: NCI-60 SRB screen; assay type: cell-based; conditions: Homo sapiens; MCF7, 10^–5 Molar; read-out: Percent growth inhibition
Description: as §1, §2, §3

SK-MEL-28 = experiment: NCI-60 SRB screen; assay type: cell-based; conditions: Homo sapiens; SK-MEL-28, 10^–5 Molar; read-out: Percent growth inhibition
Description: as §1, §2, §3

ACHN = experiment: NCI-60 SRB screen; assay type: cell-based; conditions: Homo sapiens, 10^–5 Molar, read-out: Percent growth inhibition
Description: as §1, §2, §3

K-562 = experiment: NCI-60 SRB screen; assay type: cell-based; conditions: Homo sapiens, K562; K-562, 10^–5 Molar; read-out: Percent growth inhibition
Description: as §1, §2, §3

UACC-62 = experiment: NCI-60 SRB screen; assay type: cell-based; conditions: Homo sapiens; UACC-62, 10^–5 Molar; read-out: Percent growth inhibition
Description: as §1, §2, §3

A498 = experiment: NCI-60 SRB screen; assay type: cell-based; conditions: Homo sapiens; A498, 10^–5 Molar; read-out: Percent growth inhibition
Description: as §1, §2, §3

NCI-H322M = experiment: NCI-60 SRB screen; assay type: cell-based; conditions: Homo sapiens, 10^–5 Molar, read-out: Percent growth inhibition
Description: as §1, §2, §3

OVCAR-8 = experiment: NCI-60 SRB screen; assay type: cell-based; conditions: Homo sapiens; OVCAR-8, 10^–5 Molar; read-out: Percent growth inhibition
Description: as §1, §2, §3

HS 578T = experiment: NCI-60 SRB screen; assay type: cell-based; conditions: Homo sapiens, 10^–5 Molar, read-out: Percent growth inhibition
Description: as §1, §2, §3

NCI-H522 = experiment: NCI-60 SRB screen; assay type: cell-based; conditions: Homo sapiens; NCI-H522, 10^–5 Molar; read-out: Percent growth inhibition
Description: as §1, §2, §3

CAKI-1 = experiment: NCI-60 SRB screen; assay type: cell-based; conditions: Homo sapiens; CAKI-1, 10^–5 Molar; read-out: Percent growth inhibition
Description: as §1, §2, §3

SF-295 = experiment: NCI-60 SRB screen; assay type: cell-based; conditions: Homo sapiens; SF-295, 10^–5 Molar; read-out: Percent growth inhibition
Description: as §1, §2, §3

MDA-MB-435 = experiment: NCI-60 SRB screen; assay type: cell-based; conditions: Homo sapiens; MDA-MB-435, 10^–5 Molar; read-out: Percent growth inhibition
Description: as §1, §2, §3

UO-31 = experiment: NCI-60 SRB screen; assay type: cell-based; conditions: Homo sapiens; UO-31, 10^–5 Molar; read-out: Percent growth inhibition
Description: as §1, §2, §3

SF-268 = experiment: NCI-60 SRB screen; assay type: cell-based; conditions: Homo sapiens; SF-268, 10^–5 Molar; read-out: Percent growth inhibition
Description: as §1, §2, §3

OVCAR-5 = experiment: NCI-60 SRB screen; assay type: cell-based; conditions: Homo sapiens; OVCAR-5, 10^–5 Molar; read-out: Percent growth inhibition
Description: as §1, §2, §3

MALME-3M = experiment: NCI-60 SRB screen; assay type: cell-based; conditions: Homo sapiens, 10^–5 Molar, read-out: Percent growth inhibition
Description: as §1, §2, §3

BT-549 = experiment: NCI-60 SRB screen; assay type: cell-based; conditions: Homo sapiens; BT-549, 10^–5 Molar; read-out: Percent growth inhibition
Description: as §1, §2, §3

PC-3 = experiment: NCI-60 SRB screen; assay type: cell-based; conditions: Homo sapiens; PC-3, 10^–5 Molar; read-out: Percent growth inhibition
Description: as §1, §2, §3

SF-539 = experiment: NCI-60 SRB screen; assay type: cell-based; conditions: Homo sapiens; SF-539, 10^–5 Molar; read-out: Percent growth inhibition
Description: as §1, §2, §3

OVCAR-4 = experiment: NCI-60 SRB screen; assay type: cell-based; conditions: Homo sapiens; OVCAR-4, 10^–5 Molar; read-out: Percent growth inhibition
Description: as §1, §2, §3

MDA-MB-468 = experiment: NCI-60 SRB screen; assay type: cell-based; conditions: Homo sapiens; MDA-MB-468, 10^–5 Molar; read-out: Percent growth inhibition
Description: as §1, §2, §3

SNB-75 = experiment: NCI-60 SRB screen; assay type: cell-based; conditions: Homo sapiens; SNB-75, 10^–5 Molar; read-out: Percent growth inhibition
Description: as §1, §2, §3

U251 = experiment: NCI-60 SRB screen; assay type: cell-based; conditions: Homo sapiens, U-251; U251, 10^–5 Molar; read-out: Percent growth inhibition
Description: as §1, §2, §3

NCI-H23 = experiment: NCI-60 SRB screen; assay type: cell-based; conditions: Homo sapiens; NCI-H23, 10^–5 Molar; read-out: Percent growth inhibition
Description: as §1, §2, §3

M14 = experiment: NCI-60 SRB screen; assay type: cell-based; conditions: Homo sapiens; M14, 10^–5 Molar; read-out: Percent growth inhibition
Description: as §1, §2, §3

MDA-MB-231/ATCC = experiment: NCI-60 SRB screen; assay type: cell-based; conditions: Homo sapiens, 10^–5 Molar, read-out: Percent growth inhibition
Description: as §1, §2, §3

786-0 = experiment: NCI-60 SRB screen; assay type: cell-based; conditions: Homo sapiens; 786-0, 10^–5 Molar; read-out: Percent growth inhibition
Description: as §1, §2, §3

[2] = tested on: SMMC7721 cancer cell lines; parameters: method as in PMID 22301863; conditions: SMMC7721, Fig. 2; cited from earlier work
HCT-8 cancer cell lines = tested on: HCT-8 cancer cell lines; parameters: method as in PMID 22301863; conditions: HCT-8, Fig. 2; cited from earlier work
MCF-7 cancer cell lines = tested on: MCF-7 cancer cell lines; parameters: method as in PMID 22301863; conditions: MCF-7, Fig. 2; cited from earlier work

CCn1cc(C(=O)O)c(=O)c2cc(F)c(N3CCN(CC(=O)Nc4ccc(OC)cc4)C(C)C3)c(F)c21 (stereo not shown) [Compound 5c, 1-Ethyl-6,8-difluoro-7-(4-(2-((4-methoxyphenyl)amino)-2-oxoethyl)-3-methylpiperazin-1-yl)-4-oxo-1,4-dihydroquinoline-3-carboxylic acid]
activity at 10 µM [1]: 98.8% | inhibition at 10 µM (LOX IMVI): 14% | inhibition at 10 µM (MCF7): 1.91% | inhibition at 10 µM (SK-MEL-28): 5.79% | inhibition at 10 µM (ACHN): 0.45% | inhibition at 10 µM (K-562): 5.75% | inhibition at 10 µM (UACC-62): 12.6% | inhibition at 10 µM (A498): 24.1% | inhibition at 10 µM (NCI-H322M): 5.28% | inhibition at 10 µM (OVCAR-8): 3.62% | inhibition at 10 µM (HS 578T): 8.53% | inhibition at 10 µM (NCI-H522): 6.89% | inhibition at 10 µM (CAKI-1): 11.4% | inhibition at 10 µM (SF-295): 2% | inhibition at 10 µM (MDA-MB-435): 6.19% | inhibition at 10 µM (UO-31): 19.1% | inhibition at 10 µM (SF-268): 8.23% | inhibition at 10 µM (OVCAR-5): 0.25% | inhibition at 10 µM (MALME-3M): 3.82% | inhibition at 10 µM (BT-549): 3.31% | inhibition at 10 µM (PC-3): 4.07% | inhibition at 10 µM (SF-539): 3.21% | inhibition at 10 µM (OVCAR-4): 8.21% | inhibition at 10 µM (MDA-MB-468): 3.75% | inhibition at 10 µM (SNB-75): 12.8% | inhibition at 10 µM (U251): 0.32% | inhibition at 10 µM (NCI-H23): 0.84% | inhibition at 10 µM (M14): 2.85% | inhibition at 10 µM (MDA-MB-231/ATCC): 13.7% | inhibition at 10 µM (786-0): 4.78% | melting point: 196 to 198 °C

O=C(N/N=C/c1ccc2c(c1)OCO2)c1cn(C2CC2)c2cc(N3CCNCC3)c(F)cc2c1=O [QNT4]
IC50 [2]: 2.96 µM | IC50 (HCT-8 cancer cell lines): 3.69 µM | IC50 (MCF-7 cancer cell lines): 3.71 µM
